Assay results reported in US9326513B2, “Fungicidal compositions” (Syngenta Participations AG, priority 2011, dated 2016).

Key:
Format in all cases: in vivo
Details in all cases: foliar, compared to untreated control leaf disks, read-out: disease control
[1] = test system: Blumeria graminis f. sp. tritici (Erysiphe graminis f. sp. tritici); assay: Blumeria graminis f. sp. tritici / wheat / leaf disc preventative (powdery mildew on wheat)
Procedure, shortened: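 Preventative leaf-disc test: compound (200 ppm) was sprayed onto cv. Kanzler wheat segments, which were dusted with conidia from infected plants 1 day after application. After incubation at 20° C and 60% rh, disease control relative to untreated segments was rated 6-8 days after application.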

[2] = test system: Puccinia recondita f. sp. tritici; assay: Puccinia recondita f. sp. tritici / wheat / leaf disc preventative (brown rust)
Source text: Puccinia recondita f. sp. tritici/Wheat/Leaf Disc Preventative (Brown Rust) Wheat leaf segments cv. Kanzler were placed on agar in multiwell plates (24-well format) and sprayed with the formulated test compound diluted in water. The leaf disks were inoculated with a spore suspension of the fungus 1 day after application.

[3] = test system: Puccinia recondita f. sp. tritici; assay: Puccinia recondita f. sp. tritici / wheat / leaf disc curative (brown rust)
Description: Puccinia recondita f. sp. tritici/Wheat/Leaf Disc Curative (Brown Rust) Wheat leaf segments cv. Kanzler are placed on agar in multiwell plates (24-well format). The leaf segments are inoculated with a spore suspension of the fungus. Plates were stored in darkness at 19° C. and 75% rh. The formulated test compound diluted in water was applied 1 day after inoculation.

[4] = test system: Pyrenophora teres; assay: Pyrenophora teres / barley / leaf disc preventative (net blotch)
Source text: Pyrenophora teres/Barley/Leaf Disc Preventative (Net Blotch) Barley leaf segments cv. Hasso were placed on agar in a multiwell plate (24-well format) and sprayed with the formulated test compound diluted in water. The leaf segments were inoculated with a spore suspension of the fungus 2 days after application.

Measured: pest or weed control at 200 ppm

CCN(C)/C=N/c1cc(Br)c(OCCCCc2ccc(F)cc2)nc1C [Q.026]
≥ 50%: [1] | [2] | [3] | [4]

CCN(C)/C=N/c1cc(Br)c(OC2CCC3CCCCC3C2)nc1C (stereo not shown) [Q.027]
≥ 50%: [1] | [2] | [3] | [4]

CCN(C)/C=N/c1cc(Br)c(OCC2CC=CCC2)nc1C (stereo not shown) [Q.029]
≥ 50%: [1] | [2] | [3] | [4]

CCN(C)/C=N/c1cc(Br)c(OCC2CCCC(C#N)C2)nc1C (stereo not shown) [Q.032]
≥ 50%: [1] | [2] | [3] | [4]

CCN(C)/C=N/c1cc(Br)c(OC2CCc3ccc(C(C)=O)cc3C2)nc1C (stereo not shown) [Q.033]
≥ 50%: [1] | [2] | [3] | [4]

C=CCCCOc1nc(C)c(/N=C/N(C)CC)cc1Br [Q.034]
≥ 50%: [1] | [2] | [3] | [4]

CCN(C)/C=N/c1cc(Br)c(OCCCC(C)O)nc1C (stereo not shown) [Q.035]
≥ 50%: [1] | [2] | [3] | [4]

CCN(C)/C=N/c1cc(Br)c(OC2CCN(C(=O)OC(C)(C)C)CC2)nc1C [Q.038]
≥ 50%: [1] | [2] | [3] | [4]

CCN(C)/C=N/c1cc(Br)c(OC2CCc3ccc(/C(C)=N/OC)cc3C2)nc1C (stereo not shown) [Q.039]
≥ 50%: [1] | [2] | [3] | [4]

CCN(C)/C=N/c1cc(Br)c(OC2CCc3ccc(C(C)O)cc3C2)nc1C (stereo not shown) [Q.044]
≥ 50%: [1] | [2] | [3] | [4]

CCN(C)/C=N/c1cc(Br)c(OCCCCc2ccc(OC)cc2)nc1C [Q.046]
≥ 50%: [1] | [2] | [3] | [4]

CCN(C)/C=N/c1cc(Br)c(OCCCCc2ccc(Br)cc2)nc1C [Q.047]
≥ 50%: [1] | [2] | [3] | [4]

CCN(C)/C=N/c1cc(Br)c(OCCCC(C)F)nc1C (stereo not shown) [Q.052]
≥ 50%: [1] | [2] | [3] | [4]

Cc1nc(OC2CCC3(CC2)OCCO3)c(Br)cc1/N=C/N(C)C [Q.054]
≥ 50%: [1] | [2] | [3] | [4]

CC(=O)N1CCC(Oc2nc(C)c(/N=C/N(C)C)cc2Br)CC1 [Q.055]
≥ 50%: [1] | [2] | [3] | [4]

C=CCCCOc1nc(C)c(/N=C/N(C)CC)cc1C [Q.057]
≥ 50%: [1] | [2] | [3] | [4]

CCN(C)/C=N/c1cc(Br)c(OCCCC(O)CCl)nc1C (stereo not shown) [Q.059]
≥ 50%: [1] | [2] | [3] | [4]

CCN(C)/C=N/c1cc(Br)c(OC2Cc3cc(OC)c(OC)cc3C2)nc1C [Q.066]
≥ 50%: [1] | [2] | [3] | [4]

CCN(C)/C=N/c1cc(C2CC2)c(OC2Cc3cc(OC)c(OC)cc3C2)nc1C [Q.069]
≥ 50%: [1] | [2] | [3] | [4]

CCN(C)/C=N/c1cc(Br)c(O[C@H]2C[C@@H]3ON=C(C)[C@@H]3C2)nc1C [Q.070]
≥ 50%: [1] | [2] | [3] | [4]

CCN(C)/C=N/c1cc(Br)c(OC2CCC(=C(Cl)Cl)CC2)nc1C (stereo not shown) [Q.071]
≥ 50%: [1] | [2] | [3] | [4]

CCN(C)/C=N/c1cc(Br)c(OC(C)c2cc(C)no2)nc1C (stereo not shown) [Q.074]
≥ 50%: [1] | [2] | [3] | [4]

CCN(C)/C=N/c1cc(Br)c(OC(C)c2cc(-c3ccccc3)no2)nc1C (stereo not shown) [Q.075]
≥ 50%: [1] | [2] | [3] | [4]

CCN(C)/C=N/c1cc(Br)c(OC(C)(C)c2cc(C)no2)nc1C [Q.076]
≥ 50%: [1] | [2] | [3] | [4]

CCN(C)/C=N/c1cc(Br)c(OC2CCC(c3ccccc3)CC2)nc1C (stereo not shown) [Q.082]
≥ 50%: [1] | [2] | [3] | [4]

CCN(C)/C=N/c1cc(Br)c(OCc2ccccc2)nc1C [Q.095]
≥ 50%: [1] | [2] | [3] | [4]

CCN(C)/C=N/c1cc(Br)c(OCc2ccc(Cl)cc2)nc1C [Q.097]
≥ 50%: [1] | [2] | [3] | [4]

CCN(C)/C=N/c1cc(Br)c(OCCc2ccccc2)nc1C [Q.099]
≥ 50%: [1] | [2] | [3] | [4]

CCN(C)/C=N/c1cc(Br)c(OCCCc2ccccc2)nc1C [Q.100]
≥ 50%: [1] | [2] | [3] | [4]

CCN(C)/C=N/c1cc(Br)c(OCc2cccc(Br)c2)nc1C [Q.101]
≥ 50%: [1] | [2] | [3] | [4]

CCN(C)/C=N/c1cc(Br)c(OC(C)c2ccccc2)nc1C (stereo not shown) [Q.102]
≥ 50%: [1] | [2] | [3] | [4]

CCN(C)/C=N/c1cc(Br)c(OCCCC(C)=C(C)C)nc1C [Q.103]
≥ 50%: [1] | [2] | [3] | [4]

CCN(C)/C=N/c1cc(Br)c(OCc2cc(F)cc(F)c2)nc1C [Q.105]
≥ 50%: [1] | [2] | [3] | [4]

CCN(C)/C=N/c1cc(Br)c(OCc2cccnc2)nc1C [Q.106]
≥ 50%: [1] | [2] | [3] | [4]
